Experimental data reported in patent US5801035A, “L-amino acid oxidase” (Novo Nordisk A/S, priority 1993, dated 1998).

System: L-amino acid oxidase
Test: Substrate specificity: specific activity and Km (Lineweaver-Burk) with various L-amino acids, H2O2 detected with ABTS and CiP
Type: biochemical, Trichoderma harzianum
Conditions: phosphate buffer pH 8.5, room temperature; for Km: Lineweaver-Burk plots; for Specific Activity: 20 minutes
Procedure: The specific activity of the purified L-amino acid oxidase was 16 U/mg determined in a 50 mM phosphate buffer at pH 8.5, 20° C. with 1 mM L-arginine as substrate. One unit of enzyme will form 1 μmole of hydrogen peroxide per minute. The amount of protein is quantified assuming that a solution of the L-amino acid oxidase having an optical density of 1 determined at 280 nm contains 1 mg of protein/ml. The L-amino acid oxidase yield was approx. 50 mg of pure protein per litre of culture medium.
In the following characterization experiments, detection of H2 O2 was carried out using a Coprinus cinereus peroxidase (CiP), obtained according to WO 92/16634, at a level of 4.5 PODU/ml, and 0.4 mM ABTS in phosphate buffer at pH 7.0. The hydrogen peroxide concentrations were determined relative to a freshly prepared hydrogen peroxide standard solution.
The activity of the L-amino acid oxidase was determined with various L-amino acids as substrates. The L-amino acid oxidase was incubated with substrate in a phosphate buffer at pH 8.5 and room temperature for 20 minutes. Generated hydrogen peroxide was detected using ABTS and CiP as described above. The specific activity was determined as described in Example 2 above.
Km values for the various substrates were determined by plotting values of 1/v versus 1/s (Lineweaver-Burk plots).

| SMILES | Km | Specific Activity (Substrate Conc. 1 (m/M)) | Specific Activity (Substrate Conc. 10 (m/M)) | Specific Activity (Substrate Conc. 80 (m/M)) |
| --- | --- | --- | --- | --- |
| N=C(N)NCCC[C@H](N)C(=O)O [L-arginine] | 1.2 mM | 16 U/mg | 30 U/mg | – |
| NC(=O)C[C@H](N)C(=O)O [L-asparagine] | 20 mM | – | – | 7 U/mg |
| CC(C)C[C@H](N)C(=O)O [L-leucine] | 40 mM | – | – | 16 U/mg |
| NCCCC[C@H](N)C(=O)O [L-lysine] | 0.2 mM | 7 U/mg | – | – |
| CSCC[C@H](N)C(=O)O [L-methionine] | 15 mM | – | – | 8 U/mg |
| N[C@@H](Cc1ccccc1)C(=O)O [L-phenylalanine] | 25 mM | – | – | 25 U/mg |
